Active and inactive are the calls of the source. The rule behind the calls is not given here. A value given as a limit tells only on which side of the number the result lay.

The target in test [1] is T1, Thromboxane-A synthase (Homo sapiens, UniProt P24557).
T1 sequence (P24557 whole entry): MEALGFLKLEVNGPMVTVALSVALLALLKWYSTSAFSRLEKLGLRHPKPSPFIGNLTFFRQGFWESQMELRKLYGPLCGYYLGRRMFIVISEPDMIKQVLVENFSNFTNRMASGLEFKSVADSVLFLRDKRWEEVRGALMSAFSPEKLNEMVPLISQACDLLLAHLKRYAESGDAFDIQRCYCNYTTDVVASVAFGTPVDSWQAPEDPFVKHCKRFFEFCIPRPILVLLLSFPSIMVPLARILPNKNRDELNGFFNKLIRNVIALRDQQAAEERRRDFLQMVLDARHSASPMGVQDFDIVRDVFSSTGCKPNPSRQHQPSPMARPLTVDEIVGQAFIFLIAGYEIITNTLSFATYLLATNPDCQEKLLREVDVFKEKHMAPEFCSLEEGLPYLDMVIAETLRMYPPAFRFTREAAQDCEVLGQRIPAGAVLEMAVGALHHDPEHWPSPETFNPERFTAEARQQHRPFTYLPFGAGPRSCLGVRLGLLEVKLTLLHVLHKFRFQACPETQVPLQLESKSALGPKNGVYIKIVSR
In kind it is tissue-based, Blood.

Test [2] has as its target T2, Steroid 17-alpha-hydroxylase/17,20 lyase (Rattus norvegicus, UniProt P11715).
T2 sequence (P11715 whole entry): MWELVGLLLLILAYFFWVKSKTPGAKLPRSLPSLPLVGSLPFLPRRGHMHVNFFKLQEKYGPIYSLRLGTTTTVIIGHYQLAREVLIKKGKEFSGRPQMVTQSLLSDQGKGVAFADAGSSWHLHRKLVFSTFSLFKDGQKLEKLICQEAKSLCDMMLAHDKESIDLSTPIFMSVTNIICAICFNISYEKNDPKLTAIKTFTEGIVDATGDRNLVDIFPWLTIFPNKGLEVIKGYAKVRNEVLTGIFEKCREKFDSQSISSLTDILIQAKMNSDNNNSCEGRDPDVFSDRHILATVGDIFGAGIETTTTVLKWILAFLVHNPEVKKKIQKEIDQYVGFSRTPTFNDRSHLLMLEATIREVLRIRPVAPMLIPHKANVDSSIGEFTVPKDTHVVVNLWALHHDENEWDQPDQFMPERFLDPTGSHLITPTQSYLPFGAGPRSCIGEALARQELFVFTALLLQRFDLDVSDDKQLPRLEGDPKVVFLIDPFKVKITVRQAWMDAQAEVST

Test [3] has as its target T2, Steroid 17-alpha-hydroxylase/17,20 lyase. The source holds these as a separate data set.
The species named for test [4] is Bos taurus.
Another test in a line: cells. In kind it is functional. The conditions noted are these: Bos taurus.
Test [5] is filed under the species Bos taurus. This is another data set of the same source.
Test [6] has as its target T1, Thromboxane-A synthase.

The term IC50 denotes the concentration that inhibits the measured activity by half. Low readings indicate greater potency, high ones weaker potency. In the case of `c1cn(CCC2CCCc3occc32)cn1` (stereo unspecified), half-maximal inhibition at Thromboxane-A synthase [1] (IC50) was put at 1010 nM.

`C(/Cn1ccnc1)=C1/CCCc2sccc21` showed an IC50 at Thromboxane-A synthase [1] of 1700 nM. `c1cc2ccc(Cn3ccnc3)cc2cn1` registered an IC50 at Thromboxane-A synthase [1] of 5400 nM. By inhibition is commonly meant the change of the read-out against control, counted positive when it falls. Read a low inhibition as a weak effect. Compound `c1cc(CCn2ccnc2)c2cccnc2c1` showed an inhibition at 125 µM in test [2] of 22%. For the same compound, the IC50 against Thromboxane-A synthase [1] came out at 1200 nM. On Thromboxane-A synthase [1], `C(/Cn1ccnc1)=C1\CCCc2occc21` came in with an IC50 of 4100 nM.

`C(/Cn1ccnc1)=C1/CCCc2occc21` gave an IC50 at Thromboxane-A synthase [1] of 3550 nM. Consider `c1cnc2c(c1)C(CCn1ccnc1)CCC2` (stereo unspecified), for which at 125 µM the inhibition in test [2] was 49%. In addition, the IC50 in test [3] stood at 125000 nM; on Thromboxane-A synthase [1], 630 nM. In test [2], `C1=C(CCCn2ccnc2)c2cccnc2CC1` displayed an inhibition at 125 µM of 79%. This compound also displayed an IC50 against Thromboxane-A synthase [1] of 680 nM.

In test [2], `c1cnc2c(c1)C(Cn1ccnc1)CCC2` (stereo unspecified) registered an inhibition at 125 µM of 11%. Besides, half-maximal inhibition at Thromboxane-A synthase [1] (IC50) required 2000 nM.

On to `C(/Cn1ccnc1)=C1\CCCc2sccc21`, for which, on Thromboxane-A synthase [1], the IC50 turned out to be 1260 nM. In the case of `C1=C(Cn2ccnc2)c2cccnc2CC1`, the inhibition at 125 µM in test [2] worked out at 69%. Besides, inhibition at Thromboxane-A synthase [1] was half-maximal at 1500 nM (IC50). Take `C1=C(CCn2ccnc2)c2cccnc2CC1`: the NI result in the test listed under Bos taurus [4] and in the test listed under Bos taurus [5] was “inactive” throughout. This compound also returned an inhibition at 125 µM in test [2] of 21%. Also, the half-maximal inhibitory concentration (IC50) on Thromboxane-A synthase [1] was determined as 290 nM; in “cells”, 173 nM. In turn, `O=C(OC1CCCc2ncccc21)n1ccnc1` (stereo unspecified) showed a 50% inhibitory concentration (IC50) against Thromboxane-A synthase [6] of 1600 nM. As for `c1cnc2c(c1)C(n1ccnc1)CCC2` (stereo unspecified), testing at 125 µM in test [2] gave an inhibition of 14%. Take `c1cnc2c(c1)C(CCCn1ccnc1)CCC2` (stereo unspecified): the inhibition at 125 µM in test [2] was 59%. Moreover, the midpoint of inhibition on Thromboxane-A synthase [1], the IC50, lay at 2300 nM. Turning to `c1ccc2c(c1)CCCC2CCn1ccnc1` (stereo unspecified), in test [2], the inhibition at 125 µM was greater than 80%. The results for the IC50 (in test [3]; against Thromboxane-A synthase [1]) were 20000 nM and 3400 nM, respectively. At Thromboxane-A synthase [1], `c1cc(CCn2ccnc2)c2ccsc2c1` registered an IC50 of 5300 nM.

Turning to `c1cn(CCC2CCCc3sccc32)cn1` (stereo unspecified), at Thromboxane-A synthase [1], it took 1230 nM to reach half-maximal inhibition (IC50).
